Data on 2 molecules can be found in patent US10874610B2, “Extracellular vesicle-based diagnostics and engineered exosomes for targeted therapeutics against cancer” (Northwestern University, priority 2016, dated 2020).

The experiment has as its system BCSCs. Kind of experiment: Cellular internalization pathway of bioengineered exosomes using endocytic pathway inhibitors. The format is cell-based. Particulars: BCSCs pretreated with inhibitor, then PKH67 labeled exosomes; microscopy and flow cytometry. The method, then:
The mode of cellular internalization of the bioengineered exosomes was examined by using different endocytic pathway inhibitors. BCSCs were pretreated with different inhibitors including sucrose (inhibitor of clathrin-mediated endocytosis), amiloride (inhibitor of macropinocytosis), and filipin (inhibitor of caveolar uptake pathway), followed by the incubation with PKH67 labeled exosomes.
Background: Flow cytometry measures light scatter and fluorescence of single cells or particles in a stream.

Structures are written as SMILES.

`N=C(N)NC(=O)c1nc(Cl)c(N)nc1N` [amiloride]: the “effect of inhibitor on cellular internalization of exosomes” value was “inhibited”.
`OC[C@H]1O[C@@](CO)(O[C@H]2O[C@H](CO)[C@@H](O)[C@H](O)[C@H]2O)[C@@H](O)[C@@H]1O` [sucrose]: the “effect of inhibitor on cellular internalization of exosomes” value was “inhibited”.
